Measured values: patent publication US6251925A, “Therapeutic biaryl derivatives” (Glaxo Wellcome Inc., priority 1998, dated 2001)

Experiments:
Format in all cases: cell-based
[1] = biological target: human beta-1-adrenoceptor (Homo sapiens, UniProt P08588); assay: extracellular cAMP accumulation in CHO-6CRE-luciferase cells expressing hβ1 (selectivity of hβ3 agonists); conditions: relative potency hβ3 vs hβ1, cAMP accumulation
Experimental: (§1) A particularly useful method for determining agonist activity at human atypical beta-adrenoceptors involves the use of Chinese hamster ovarian (CHO) cells transfected with the human beta-3-adrenoceptor according to Method 1.
(§2) General cell culture guidelines are observed (Fershney, R. A. (1987) Culture of animal cells: A manual of basic technique. VViley-Liss, Inc., N.Y.). A standard cell culture incubator is used (37° C., 5% CO2 in air, 95% relative humidity). H β3 CHO cells are grown in DMEM/F12 (with pyroxidine.HCl, 15 mM HEPES, L-glutamine), supplanted with 10% heat-inactivated FBS, 500 μg/ml G418, 2 mM L-glutamine, 100 units penicillin G and 100 μg streptomycin sulfate. One confluent flask of cells is trypsinised and resuspended in the above medium at a concentration of 30-40,000 cells/100 μl and plated into 96-well flat bottom plates. The cells are then used for assay within 18-24 hours.
(§3) The medium is aspirated from each well, and replaced with 180 μl DMEM/F12 with […] IBMX. Antagonists, if required, are added at this stage. The plate is then placed back in the incubator for 30 min. Drugs are then added to the wells (20 μl, 100 x required final concentration)for 60 min. Responses were determined by measuring cAMP levels of a 20 ul sample of extracellular media using a scintillation proximity based radio-immunoassay (NEN Flashplates). CHO-6CRE-iuciferase cell lines which stably express hβ3 receptors are seeded at 30,000 cells/well for 24 hr in DMEM/F12 containing 10% FBS. Media is removed from the cells and replaced with DMEM/F12 buffer (180 μl) containing […] IBMX and 1 mM ascorbic acid for 30 min prior to addition of compound. Vehicle or agonist (20 μl) is added and incubated at 37° C. for 60 minutes. At the end of the incubation period, samples of extracellular media are removed for direct assay in cAMP Flashplates (NEN).
(§4) As used herein, a compound is considered to be an agonist for hβ3if the compound stimulates the accumulation of extracellular cAMP with CHO-6CRE-luciferase cells expressing hβ3. […] The relative potency of a hβ3 agonist may be compared to its potency for stimulating the accumulation of extracellular cAMP with CHO-6CRE-luciferase cells expressing hβ2 and hβ1.

[2] = biological target: human beta-2-adrenoceptor (Homo sapiens, UniProt P07550); assay: extracellular cAMP accumulation in CHO-6CRE-luciferase cells expressing hβ2 (selectivity of hβ3 agonists); conditions: relative potency hβ3 vs hβ2, cAMP accumulation
Experimental: as §1, §2, §3, §4

[3] = biological target: human beta-3-adrenoceptor (Homo sapiens, UniProt P13945); assay: extracellular cAMP accumulation (agonist activity) in CHO-6CRE-luciferase cells expressing hβ3; conditions: CHO cells expressing hβ3, 60 min, 37° C.
Experimental: as §1, §2, §3, §4

human beta-2-adrenoceptor, sequence (P07550 whole entry): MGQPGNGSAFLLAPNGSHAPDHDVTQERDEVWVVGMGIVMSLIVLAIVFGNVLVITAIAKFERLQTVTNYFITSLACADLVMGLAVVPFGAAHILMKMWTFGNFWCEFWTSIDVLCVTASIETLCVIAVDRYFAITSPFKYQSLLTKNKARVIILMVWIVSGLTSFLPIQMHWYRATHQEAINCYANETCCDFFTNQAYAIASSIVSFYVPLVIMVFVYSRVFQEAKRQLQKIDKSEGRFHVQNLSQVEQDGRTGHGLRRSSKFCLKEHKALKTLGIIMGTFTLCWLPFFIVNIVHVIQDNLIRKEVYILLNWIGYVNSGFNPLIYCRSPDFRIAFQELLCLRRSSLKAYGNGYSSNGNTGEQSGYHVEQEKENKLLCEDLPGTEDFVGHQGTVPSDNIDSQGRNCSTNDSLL
human beta-3-adrenoceptor, sequence (P13945 whole entry): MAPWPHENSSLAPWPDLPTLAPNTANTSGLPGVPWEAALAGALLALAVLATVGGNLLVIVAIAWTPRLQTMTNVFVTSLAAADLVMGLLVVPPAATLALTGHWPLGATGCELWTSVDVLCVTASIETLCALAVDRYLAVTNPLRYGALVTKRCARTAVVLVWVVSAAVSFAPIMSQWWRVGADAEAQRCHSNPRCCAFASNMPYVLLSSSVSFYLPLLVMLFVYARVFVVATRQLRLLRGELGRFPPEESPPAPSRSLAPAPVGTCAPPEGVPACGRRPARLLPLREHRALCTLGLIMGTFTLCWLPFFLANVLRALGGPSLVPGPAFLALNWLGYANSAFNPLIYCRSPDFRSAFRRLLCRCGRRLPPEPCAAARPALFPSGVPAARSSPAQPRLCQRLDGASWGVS
human beta-1-adrenoceptor, sequence (P08588 whole entry): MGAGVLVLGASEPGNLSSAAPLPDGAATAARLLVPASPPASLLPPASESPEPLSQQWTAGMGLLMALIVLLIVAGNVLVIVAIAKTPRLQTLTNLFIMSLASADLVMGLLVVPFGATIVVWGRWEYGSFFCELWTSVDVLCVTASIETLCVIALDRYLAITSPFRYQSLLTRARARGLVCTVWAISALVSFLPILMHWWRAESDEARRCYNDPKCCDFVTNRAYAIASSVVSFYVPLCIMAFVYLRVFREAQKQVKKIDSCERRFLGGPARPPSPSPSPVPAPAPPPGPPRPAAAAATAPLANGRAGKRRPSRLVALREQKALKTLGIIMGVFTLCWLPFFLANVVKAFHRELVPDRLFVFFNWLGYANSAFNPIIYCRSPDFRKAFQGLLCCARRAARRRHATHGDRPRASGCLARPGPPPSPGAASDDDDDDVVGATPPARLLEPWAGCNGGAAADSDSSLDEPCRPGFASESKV

Compound	times more potent at hβ3 than at hβ1 [1]	times more potent at hβ3 than at hβ2 [2]	EC50 [3]
Cc1ccc(C(=O)O)cc1-c1cccc(NCCNC[C@H](O)c2cccc(Cl)c2)c1 [Example 13, (R)-3'-[[2-[[2-(3-Chlorophenyl)-2-hydroxyethyl]amino]ethyl]amino]-[1,1'-biphenyl]-2-methyl-5-carboxylic acid]	at least 100 times	at least 100 times	–
O=C(O)c1ccc(-c2cccc(NCCNC[C@H](O)c3cccc(Cl)c3)c2)cc1Cl [Example 14, (R)-3'-[[2-[[2-(3-Chlorophenyl)-2-hydroxyethyl]amino]ethyl]amino]-[1,1'-biphenyl]-3-chloro-4-carboxylic acid]	at least 100 times	at least 100 times	≤ 100 nM
O=C(O)c1cccc(-c2cccc(NCCNC[C@@H](O)COc3ccccc3)c2)c1 [Example 16]	at least 100 times	at least 100 times	≤ 1 nM
O=C(O)c1cccc(-c2cccc(OCCNC[C@H](O)c3cccc(Cl)c3)c2)c1 [Example 17]	at least 100 times	at least 100 times	≤ 100 nM
O=C(O)c1cccc(-c2cccc(NCCNC[C@H](O)c3cc(Cl)cc(Cl)c3)c2)c1 [Example 9, (R)-3'-[[2-[[2-(3,5-Dichlorophenyl)-2-hydroxyethyl]amino]ethyl]amino]-[1,1'-biphenyl]-3-carboxylic acid]	at least 100 times	at least 100 times	≤ 100 nM
O=C(O)c1ccc(-c2cccc(NCCNC[C@H](O)c3cccc(Cl)c3)c2)c(C(=O)O)c1 [Example 12, (R)-3'-[[2-[[2-(3-Chlorophenyl)-2-hydroxyethyl]amino]ethyl]amino]-[1,1'-biphenyl]-2,4-dicarboxylic acid]	at least 100 times	at least 100 times	≤ 100 nM
O=C(O)c1cc(-c2cccc(NCCNC[C@H](O)c3cccc(Cl)c3)c2)cc2c1OCC2 [Example 23]	at least 100 times	at least 100 times	≤ 100 nM
O=C(O)c1cccc(-c2cccc(NCCNC[C@H](O)c3cccc(Cl)c3)c2)c1 [Example 10, (R)-3'-[[2-[[2-(3-Chlorophenyl)-2-hydroxyethyl]amino]ethyl]amino]-[1,1'-biphenyl]-3-carboxylic acid]	at least 100 times	at least 100 times	≤ 1 nM
C[C@H](CNc1cccc(-c2ncccc2C(=O)O)c1)NC[C@H](O)c1cccc(Cl)c1 [Example 22, 2-[3-[[2R-[[2-(3-Chlorophenyl)-2R-hydroxyethyl]amino]propyl]amino]phenyl]-3-pyridinecarboxylic acid]	at least 100 times	at least 100 times	≤ 100 nM
O=C(O)c1cncc(-c2cccc(NCCNC[C@H](O)c3cccc(Cl)c3)c2)c1 [Example 24, (R)-5-[3-[[2-[[2-(3-chlorophenyl)-2-hydroxyethyl]amino]ethyl]amino]phenyl]-3-pyridinecarboxylic acid]	at least 100 times	at least 100 times	≤ 1 nM
C[C@H](CNc1cccc(-c2ccc(C(=O)O)cc2C(=O)O)c1)NC[C@H](O)c1cccc(Cl)c1 [Example 20, 3'-[[2R-[[2-(3-Chlorophenyl)-2R-hydroxyethyl]amino]propyl]amino]-[1,1'-biphenyl]-2,4-dicarbonylic acid]	at least 100 times	at least 100 times	≤ 1 nM
COC(=O)c1cc(C(=O)O)ccc1-c1cccc(NCCNC[C@H](O)c2cccc(Cl)c2)c1 [Example 11, (R)-3'-[[2-[[2-(3-Chlorophenyl)-2-hydroxyethyl]amino]ethyl]amino]-[1,1'-biphenyl]-2,4-dicarboxylic acid 2-methyl ester]	at least 100 times	at least 100 times	≤ 100 nM
C[C@H](CNc1cccc(-c2cncc(C(=O)O)c2)c1)NC[C@H](O)c1cccc(Cl)c1 [Example 21, 5-[3-[[2R-[[2-(3-Chlorophenyl)-2R-hydroxyethyl]amino]propyl]amino]phenyl]-3-pyridinecarboxylic acid]	at least 100 times	at least 100 times	≤ 100 nM
